Measured values: the supplement of paper PMC10307832

Tests used:
Assay in all cases: relative viability (nuclei count vs DMSO), 5 days (fraction); higher = more cells survive
Vorinostat + Tozasertib = compound: O=C(CCCCCCC(=O)Nc1ccccc1)NO [Vorinostat] + Cc1cc(Nc2cc(N3CCN(C)CC3)nc(Sc3ccc(NC(=O)C4CC4)cc3)n2)n[nH]1 [Tozasertib] (partner 0.1 µM)
Summary of the method: (§1)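 Lung cancer cell lines were seeded in 1536-well plates and dosed by pin tool the next day, with either a single drug or a fixed anchor-drug dose combined with five library-drug doses (not always all listed) spaced in √10 steps. Five days later, one step fixed the cells and stained their nuclei (final 0.05% Triton X-100, 1% formaldehyde, 1 ug/ml Hoechst), and nuclei were counted on 4× images. Relative viability is the nuclei count in treated wells divided by the count in vehicle wells, and each value is the median of duplicate plates.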

Vorinostat + Foretinib = compound: O=C(CCCCCCC(=O)Nc1ccccc1)NO [Vorinostat] + COc1cc2c(Oc3ccc(NC(=O)C4(C(=O)Nc5ccc(F)cc5)CC4)cc3F)ccnc2cc1OCCCN1CCOCC1 [Foretinib] (partner 0.25 µM)
Summary of the method: as §1

Vorinostat + Pemetrexed = compound: O=C(CCCCCCC(=O)Nc1ccccc1)NO [Vorinostat] + Nc1nc2[nH]cc(CCc3ccc(C(=O)N[C@@H](CCC(=O)O)C(=O)O)cc3)c2c(=O)[nH]1 [Pemetrexed] (partner 0.2 µM)
Summary of the method: as §1

Vorinostat + Trametinib = compound: O=C(CCCCCCC(=O)Nc1ccccc1)NO [Vorinostat] + CC(=O)Nc1cccc(-n2c(=O)n(C3CC3)c(=O)c3c(Nc4ccc(I)cc4F)n(C)c(=O)c(C)c32)c1 [Trametinib] (partner 0.02 µM)
Summary of the method: as §1

Vorinostat + Bortezomib = compound: O=C(CCCCCCC(=O)Nc1ccccc1)NO [Vorinostat] + CC(C)C[C@H](NC(=O)[C@H](Cc1ccccc1)NC(=O)c1cnccn1)B(O)O [Bortezomib] (partner 0.002 µM)
Summary of the method: as §1

| Cell Line | relative viability (Vorinostat + Tozasertib; first compound 0.253 µM) | relative viability (Vorinostat + Tozasertib; first compound 0.8 µM) | relative viability (Vorinostat + Tozasertib; first compound 2.53 µM) | relative viability (Vorinostat + Tozasertib; first compound 8 µM) | relative viability (Vorinostat + Foretinib; first compound 0.253 µM) | relative viability (Vorinostat + Foretinib; first compound 0.8 µM) | relative viability (Vorinostat + Foretinib; first compound 2.53 µM) | relative viability (Vorinostat + Foretinib; first compound 8 µM) | relative viability (Vorinostat + Pemetrexed; first compound 0.253 µM) | relative viability (Vorinostat + Pemetrexed; first compound 0.8 µM) | relative viability (Vorinostat + Pemetrexed; first compound 2.53 µM) | relative viability (Vorinostat + Pemetrexed; first compound 8 µM) | relative viability (Vorinostat + Trametinib; first compound 0.253 µM) | relative viability (Vorinostat + Trametinib; first compound 0.8 µM) | relative viability (Vorinostat + Trametinib; first compound 2.53 µM) | relative viability (Vorinostat + Trametinib; first compound 8 µM) | relative viability (Vorinostat + Bortezomib; first compound 0.253 µM) | relative viability (Vorinostat + Bortezomib; first compound 0.8 µM) | relative viability (Vorinostat + Bortezomib; first compound 2.53 µM) | relative viability (Vorinostat + Bortezomib; first compound 8 µM) |
| --- | --- | --- | --- | --- | --- | --- | --- | --- | --- | --- | --- | --- | --- | --- | --- | --- | --- | --- | --- | --- |
| NCI-H2023 | 0.364 | 0.215 | 0.11 | 0.0623 | 1.13 | 0.82 | 0.31 | 0.0629 | 0.233 | 0.182 | 0.103 | 0.067 | 0.65 | 0.422 | 0.184 | 0.07 | 1.16 | 0.657 | 0.223 | 0.07 |
| NCI-H3122 | 0.387 | 0.294 | 0.0525 | 0.0914 | 1.04 | 1.05 | 0.242 | 0.0563 | 0.199 | 0.199 | 0.174 | 0.0738 | 0.168 | 0.265 | 0.298 | 0.118 | 1.07 | 0.995 | 1.03 | 0.145 |
| NCI-H441 | 0.607 | 0.529 | 0.3 | 0.194 | 0.874 | 0.971 | 0.59 | 0.175 | 0.252 | 0.232 | 0.253 | 0.143 | 0.555 | 0.602 | 0.226 | 0.127 | 0.299 | 0.26 | 0.165 | 0.106 |
| SW 1573 | 0.19 | 0.266 | 0.155 | 0.0644 | 1.29 | 1.07 | 0.75 | 0.15 | 1.2 | 1.05 | 0.346 | 0.0659 | 0.709 | 0.596 | 0.357 | 0.0536 | 1.11 | 1.1 | 0.565 | 0.0796 |
| RERF-LC-KJ | 0.442 | 0.318 | 0.262 | 0.213 | 1 | 0.791 | 0.743 | 0.248 | 0.472 | 0.39 | 0.333 | 0.212 | 0.897 | 0.732 | 0.308 | 0.201 | 1.2 | 1.04 | 0.423 | 0.286 |
| NCI-H838 | 0.263 | 0.227 | 0.172 | 0.111 | 1.33 | 1.05 | 0.51 | 0.173 | 0.258 | 0.269 | 0.19 | 0.167 | 0.631 | 0.481 | 0.279 | 0.112 | 1.22 | 0.864 | 0.275 | 0.134 |
| HCC-15 | 0.294 | 0.219 | 0.101 | 0.0559 | 1.12 | 0.979 | 0.464 | 0.102 | 0.219 | 0.216 | 0.172 | 0.099 | 0.377 | 0.338 | 0.147 | 0.0834 | 1.15 | 0.973 | 0.518 | 0.13 |
| SK-LU-1 | 0.303 | 0.186 | 0.143 | 0.101 | 0.881 | 0.829 | 0.385 | 0.137 | 0.936 | 0.807 | 0.64 | 0.179 | 0.495 | 0.474 | 0.41 | 0.205 | 0.678 | 1.22 | 0.248 | 0.163 |
